Results: PubChem BioAssay (NCI)
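These data come from cells grown in 96-well plates and exposed to compound for 48 hours at five concentrations. TGI is the concentration that stops growth completely.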

What was measured:
Assay in all cases: NCI tumour cell line growth inhibition, 48 h
[1] = test system: 786-0 renal
[2] = test system: A549 NSCLC
[3] = test system: ACHN renal
[4] = test system: CAKI-1 renal
[5] = test system: CCRF-CEM leukemia
[6] = test system: COLO 205 colon
[7] = test system: DLD-1 colon
[8] = test system: DMS 114 small cell lung
[9] = test system: DMS 273 small cell lung
[10] = test system: EKVX NSCLC
[11] = test system: HCC-2998 colon
[12] = test system: HCT-116 colon
[13] = test system: HCT-15 colon
[14] = test system: HL-60(TB) leukemia
[15] = test system: HOP-18 NSCLC
[16] = test system: HOP-62 NSCLC
[17] = test system: HOP-92 NSCLC
[18] = test system: HT29 colon
[19] = test system: K-562 leukemia
[20] = test system: KM12 colon
[21] = test system: KM20L2 colon
[22] = test system: LOX IMVI melanoma
[23] = test system: LXFL 529 NSCLC
[24] = test system: M14 melanoma
[25] = test system: M19-MEL melanoma
[26] = test system: MALME-3M melanoma
[27] = test system: MOLT-4 leukemia
[28] = test system: NCI-H226 lung
[29] = test system: NCI-H23 lung
[30] = test system: NCI-H460 lung
[31] = test system: NCI-H522 lung
[32] = test system: OVCAR-3 ovarian
[33] = test system: OVCAR-4 ovarian
[34] = test system: OVCAR-5 ovarian
[35] = test system: OVCAR-8 ovarian
[36] = test system: RPMI-8226 leukemia
[37] = test system: RXF 393 renal
[38] = test system: RXF-631 renal
[39] = test system: SF-268 CNS
[40] = test system: SF-295 CNS
[41] = test system: SF-539 CNS
[42] = test system: SK-MEL-2 melanoma
[43] = test system: SK-MEL-28 melanoma
[44] = test system: SK-MEL-5 melanoma
[45] = test system: SK-OV-3 ovarian
[46] = test system: SN12C renal
[47] = test system: SNB-19 CNS
[48] = test system: SNB-75 CNS
[49] = test system: SNB-78 CNS
[50] = test system: SR leukemia
[51] = test system: SW-620 colon
[52] = test system: TK-10 renal
[53] = test system: U251 CNS
[54] = test system: UACC-257 melanoma
[55] = test system: UACC-62 melanoma
[56] = test system: UO-31 renal
[57] = test system: XF 498 CNS
[58] = test system: A498 renal
[59] = test system: IGROV1 ovarian

COc1cc(/C=C2\CCc3ccccc3C2=O)cc(OC)c1OC
TGI [1]: 29.3 µM
TGI [2]: 50.1 µM
TGI [3]: 29.6 µM
TGI [4]: 29.8 µM
TGI [5]: 75.1 µM
TGI [6]: 30.7 µM
TGI [7]: 28.3 µM
TGI [8]: 25.1 µM
TGI [9]: 24.2 µM
TGI [10]: 34.3 µM
TGI [11]: 32.2 µM
TGI [12]: 28 µM
TGI [13]: 34.5 µM
TGI [14]: 45.5 µM
TGI [15]: 26.9 µM
TGI [16]: 47.8 µM
TGI [17]: 24.5 µM
TGI [18]: 32.5 µM
TGI [19]: > 100 µM
TGI [20]: 26.5 µM
TGI [21]: 31.1 µM
TGI [22]: 24.4 µM
TGI [23]: 29.5 µM
TGI [24]: 30 µM
TGI [25]: 30 µM
TGI [26]: 32.9 µM
TGI [27]: 40.7 µM
TGI [28]: 36.8 µM
TGI [29]: 29.2 µM
TGI [30]: 36.4 µM
TGI [31]: 28.2 µM
TGI [32]: 30.1 µM
TGI [33]: 60.8 µM
TGI [34]: 27.9 µM
TGI [35]: 29.8 µM
TGI [36]: 31.3 µM
TGI [37]: 29 µM
TGI [38]: 38.6 µM
TGI [39]: 30.3 µM
TGI [40]: 28.6 µM
TGI [41]: 30.8 µM
TGI [42]: 29.8 µM
TGI [43]: 28.4 µM
TGI [44]: 25.3 µM
TGI [45]: 35.5 µM
TGI [46]: 35.6 µM
TGI [47]: 29.2 µM
TGI [48]: 53.6 µM
TGI [49]: 74.1 µM
TGI [50]: > 100 µM
TGI [51]: 31 µM
TGI [52]: 33.6 µM
TGI [53]: 29.7 µM
TGI [54]: 27.4 µM
TGI [55]: 27.5 µM
TGI [56]: 30.7 µM
TGI [57]: 32.1 µM

CC1=N/C(=C\c2ccc([N+](=O)[O-])cc2)C(=O)O1
TGI [1]: > 100 µM
TGI [58]: > 100 µM
TGI [2]: > 100 µM
TGI [3]: > 100 µM
TGI [6]: > 100 µM
TGI [7]: > 100 µM
TGI [8]: > 100 µM
TGI [10]: > 100 µM
TGI [11]: > 100 µM
TGI [12]: > 100 µM
TGI [13]: > 100 µM
TGI [14]: > 100 µM
TGI [15]: > 100 µM
TGI [16]: > 100 µM
TGI [17]: > 100 µM
TGI [18]: > 100 µM
TGI [59]: > 100 µM
TGI [19]: > 100 µM
TGI [20]: > 100 µM
TGI [21]: > 100 µM
TGI [23]: > 100 µM
TGI [24]: > 100 µM
TGI [25]: > 100 µM
TGI [26]: > 100 µM
TGI [27]: > 100 µM
TGI [29]: > 100 µM
TGI [30]: > 100 µM
TGI [31]: > 100 µM
TGI [32]: > 100 µM
TGI [33]: > 100 µM
TGI [34]: > 100 µM
TGI [35]: > 100 µM
TGI [36]: > 100 µM
TGI [37]: > 100 µM
TGI [38]: > 100 µM
TGI [39]: > 100 µM
TGI [40]: > 100 µM
TGI [41]: > 100 µM
TGI [42]: > 100 µM
TGI [43]: > 100 µM
TGI [44]: > 100 µM
TGI [46]: > 100 µM
TGI [47]: > 100 µM
TGI [49]: > 100 µM
TGI [51]: > 100 µM
TGI [52]: > 100 µM
TGI [53]: > 100 µM
TGI [54]: > 100 µM
TGI [55]: > 100 µM
TGI [56]: > 100 µM

CC1=N/C(=C\c2cccc3ccccc23)C(=O)O1
TGI [1]: > 100 µM
TGI [58]: > 100 µM
TGI [2]: > 100 µM
TGI [3]: > 100 µM
TGI [5]: > 100 µM
TGI [6]: > 100 µM
TGI [7]: > 100 µM
TGI [8]: > 100 µM
TGI [10]: > 100 µM
TGI [11]: > 100 µM
TGI [12]: > 100 µM
TGI [13]: > 100 µM
TGI [14]: > 100 µM
TGI [15]: > 100 µM
TGI [16]: > 100 µM
TGI [17]: > 100 µM
TGI [18]: > 100 µM
TGI [59]: > 100 µM
TGI [19]: > 100 µM
TGI [20]: > 100 µM
TGI [21]: > 100 µM
TGI [23]: > 100 µM
TGI [24]: > 100 µM
TGI [25]: > 100 µM
TGI [26]: > 100 µM
TGI [27]: > 100 µM
TGI [29]: > 100 µM
TGI [30]: > 100 µM
TGI [31]: > 100 µM
TGI [34]: > 100 µM
TGI [35]: > 100 µM
TGI [36]: > 100 µM
TGI [37]: > 100 µM
TGI [38]: > 100 µM
TGI [39]: > 100 µM
TGI [40]: > 100 µM
TGI [41]: > 100 µM
TGI [42]: > 100 µM
TGI [43]: > 100 µM
TGI [44]: > 100 µM
TGI [46]: > 100 µM
TGI [47]: > 100 µM
TGI [49]: > 100 µM
TGI [51]: > 100 µM
TGI [52]: > 100 µM
TGI [53]: > 100 µM
TGI [54]: > 100 µM
TGI [55]: > 100 µM
TGI [56]: > 100 µM
